According to patent publication US20260055102A1 (Redx Pharma Limited, priority 2022, published 2026):

Experiments:
[1] = target: Recombinant human DDR1 (aa440-876 containing a GST tag) (Homo sapiens (Human), UniProt Q08345); experiment: LanthaScreen Eu Kinase Binding Assay DDR1; conditions: Kinase Tracer 178 5 nM, at least two independent replicates; for IC50: read-out: DDR1 pIC50 (converted)
Summary of the method: (§1)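 DDR1 (2.5 nM) or DDR2 (1.75 nM) was preincubated with compound 30 min at RT in 50 mM HEPES pH 7.3, 10 mM MgCl2, 1 mM EGTA, 0.01% Tween. Eu-anti-GST and Tracer 178 were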

[2] = target: Recombinant human DDR2 (aa427-855 containing a GST tag) (Homo sapiens (Human), UniProt Q16832); experiment: LanthaScreen Eu Kinase Binding Assay DDR2; conditions: Kinase Tracer 178 10 nM, at least two independent replicates; for IC50: read-out: DDR2 pIC50 (converted)
Recombinant human DDR2 (aa427-855 containing a GST tag), sequence (Q16832 427-855): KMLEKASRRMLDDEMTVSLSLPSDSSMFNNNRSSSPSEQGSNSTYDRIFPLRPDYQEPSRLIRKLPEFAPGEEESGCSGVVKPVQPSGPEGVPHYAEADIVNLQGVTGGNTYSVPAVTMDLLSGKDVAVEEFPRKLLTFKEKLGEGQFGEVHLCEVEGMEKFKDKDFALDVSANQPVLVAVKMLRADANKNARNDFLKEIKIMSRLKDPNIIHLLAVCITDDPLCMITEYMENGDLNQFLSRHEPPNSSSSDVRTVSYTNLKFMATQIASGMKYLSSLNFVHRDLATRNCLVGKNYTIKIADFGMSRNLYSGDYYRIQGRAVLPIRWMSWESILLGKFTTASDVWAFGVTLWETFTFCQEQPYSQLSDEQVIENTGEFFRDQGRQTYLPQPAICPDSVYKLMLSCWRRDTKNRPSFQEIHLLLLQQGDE
Summary of the method: as §1

Recombinant human DDR1 (aa440-876 containing a GST tag), sequence (Q08345 other isoform, or with tags, fused parts or gaps): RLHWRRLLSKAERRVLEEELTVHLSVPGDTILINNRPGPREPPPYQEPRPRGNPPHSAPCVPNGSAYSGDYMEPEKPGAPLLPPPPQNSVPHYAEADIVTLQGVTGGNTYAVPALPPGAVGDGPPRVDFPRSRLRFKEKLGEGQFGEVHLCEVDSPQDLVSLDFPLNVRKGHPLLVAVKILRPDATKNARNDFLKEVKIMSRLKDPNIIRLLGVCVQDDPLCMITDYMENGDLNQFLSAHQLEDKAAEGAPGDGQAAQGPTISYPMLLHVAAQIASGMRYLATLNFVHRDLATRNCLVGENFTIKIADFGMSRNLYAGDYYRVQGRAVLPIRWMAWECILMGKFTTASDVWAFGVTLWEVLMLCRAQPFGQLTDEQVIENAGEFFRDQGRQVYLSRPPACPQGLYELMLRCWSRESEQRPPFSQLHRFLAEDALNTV

| Structure (SMILES) | IC50 [1] [nM] | DDR2 pIC50 [2] | DDR1 pIC50 [1] | IC50 [2] [nM] |
| --- | --- | --- | --- | --- |
| Cc1cccc2c1n(-c1ccc(-c3cncc4c3cnn4C)cc1)c(=O)n2CC(=O)N1CCOC(C(F)(F)F)C1 (centres unmarked) [Example 9, 4-methyl-3-[4-(1-methylpyrazolo[3,4-c]pyridin-4-yl)phenyl]-1-[2-oxo-2-[2-(trifluoromethyl)morpholin-4-yl]ethyl]benzimidazol-2-one] | – | – | A (pIC50>8) | 10 to 100 |
| Cc1cccc2c1n(-c1ccc(-c3cncc4c3cnn4C)nc1)c(=O)n2CC(=O)N1CCOC[C@H]1C(F)(F)F [Example 53, 4-methyl-3-[6-(1-methylpyrazolo[3,4-c]pyridin-4-yl)-3-pyridyl]-1-[2-oxo-2-[(3S)-3-(trifluoromethyl)morpholin-4-yl]ethyl]benzimidazol-2-one] | – | – | A (pIC50>8) | 10 to 100 |
| CN1CCN(C(=O)Cn2c(=O)n(-c3ccc(-c4cncc5c4cnn5C)cc3)c3ccccc32)CC1 [Example 21, 1-[2-(4-methylpiperazin-1-yl)-2-oxoethyl]-3-[4-(1-methylpyrazolo[3,4-c]pyridin-4-yl)phenyl]benzimidazol-2-one] | – | D (pIC50≤6) | D (pIC50≤6) | – |
| Cc1cc(-c2cncc3c2cnn3C)ccc1-n1c(=O)n(CC(=O)N2CCOC(C(F)(F)F)C2)c2ccccc21 (centres unmarked) [Example 40, 1-[2-methyl-4-(1-methylpyrazolo[3,4-c]pyridin-4-yl)phenyl]-3-[2-oxo-2-[2-(trifluoromethyl)morpholin-4-yl]ethyl]benzimidazol-2-one] | 10 to 100 | D (pIC50≤6) | – | – |
| Cc1cccc2c1n(-c1ccc(-c3cncc4[nH]ncc34)cn1)c(=O)n2CC(=O)N[C@@H](C)C(F)(F)F [Example 69, 2-[4-methyl-2-oxo-3-[5-(1H-pyrazolo[3,4-c]pyridin-4-yl)-2-pyridyl]benzimidazol-1-yl]-N-[(1S)-2,2,2-trifluoro-1-methyl-ethyl]acetamide] | – | – | A (pIC50>8) | 10 to 100 |
| COc1cccc2c1n(-c1ccc(-c3cncc4c3cnn4C)cc1)c(=O)n2CC(=O)NCC(F)(F)F [Example 12, 2-[4-methoxy-3-[4-(1-methylpyrazolo[3,4-c]pyridin-4-yl)phenyl]-2-oxobenzimidazol-1-yl]-N-(2,2,2-trifluoroethyl)acetamide] | 10 to 100 | D (pIC50≤6) | – | – |
| Cn1ncc2c(-c3ccc(-n4c(=O)n(CC(=O)N5CCC[C@H](C(F)(F)F)C5)c5ccccc54)cc3)cncc21 [Example 31, 1-[4-(1-methylpyrazolo[3,4-c]pyridin-4-yl)phenyl]-3-[2-oxo-2-[(3S)-3-(trifluoromethyl)-1-piperidyl]ethyl]benzimidazol-2-one] | – | D (pIC50≤6) | A (pIC50>8) | – |
| Cc1cccc2c1n(-c1ccc(-c3cncc4c3cnn4C)nc1)c(=O)n2CC(=O)N1CCOC(C(F)(F)F)C1 (stereo in doubt) [Example 55, 4-methyl-3-[6-(1-methylpyrazolo[3,4-c]pyridin-4-yl)-3-pyridyl]-1-[2-oxo-2-[(2S)-2-trifluoromethyl)morpholin-4-yl]ethyl]benzimidazol-2-one] | < 10 | – | – | 100 to 1000 |
| Cc1cccc2c1n(-c1ccc(-c3cncc4c3cnn4C)nn1)c(=O)n2CC(=O)NCC(F)(F)F [Example 67, 2-[4-methyl-3-[6-(1-methylpyrazolo[3,4-c]pyridin-4-yl)pyridazin-3-yl]-2-oxo-benzimidazol-1-yl]-N-(2,2,2-trifluoroethyl)acetamide] | 10 to 100 | – | – | 100 to 1000 |

More lines, now with the values ahead:

| IC50 [1] [nM] | DDR2 pIC50 [2] | DDR1 pIC50 [1] | IC50 [2] [nM] | Structure (SMILES) |
| --- | --- | --- | --- | --- |
| 10 to 100 | D (pIC50≤6) | – | – | Cn1ncc2c(-c3ccc(-n4c(=O)n(CC(=O)N5CCC[C@H]5C(F)(F)F)c5cccnc54)cc3)cncc21 [Example 79, 3-[4-(1-methylpyrazolo[3,4-c]pyridin-4-yl)phenyl]-1-[2-oxo-2-[(2S)-2-(trifluoromethyl)pyrrolidin-1-yl]ethyl]imidazo[4,5-b]pyridin-2-one] |
| 100 to 1000 | D (pIC50≤6) | – | – | Cc1cc(-n2c(=O)n(CC(=O)NCC(F)(F)F)c3cccc(C)c32)cnc1-c1cncc2[nH]nc(C)c12 [Example 102, 2-[4-methyl-3-[5-methyl-6-(3-methyl-1H-pyrazolo[3,4-c]pyridin-4-yl)-3-pyridyl]-2-oxo-benzimidazol-1-yl]-N-(2,2,2-trifluoroethyl)acetamide] |
| 10 to 100 | D (pIC50≤6) | – | – | Cn1ncc2c(-c3cc(F)c(-n4c(=O)n(CC(=O)NCC(F)(F)F)c5ccccc54)c(F)c3)cncc21 [Example 89, 2-[3-[2,6-difluoro-4-(1-methylpyrazolo[3,4-c]pyridin-4-yl)phenyl]-2-oxo-benzimidazol-1-yl]-N-(2,2,2-trifluoroethyl)acetamide] |
| 100 to 1000 | D (pIC50≤6) | – | – | Cc1cc(-c2cncc3c2cnn3C)cc(C)c1-n1c(=O)n(CC(=O)NCC(F)(F)F)c2ccccc21 [Example 90, 2-[3-[2,6-dimethyl-4-(1-methylpyrazolo[3,4-c]pyridin-4-yl)phenyl]-2-oxo-benzimidazol-1-yl]-N-(2,2,2-trifluoroethyl)acetamide] |
| – | – | A (pIC50>8) | 100 to 1000 | Cc1cc(-c2cncc3[nH]ncc23)ncc1-n1c(=O)n(CC(=O)NCC(F)(F)F)c2cccc(C)c21 [Example 93, 2-[4-methyl-3-[4-methyl-6-(1H-pyrazolo[3,4-c]pyridin-4-yl)-3-pyridyl]-2-oxo-benzimidazol-1-yl]-N-(2,2,2-trifluoroethyl)acetamide] |
| – | D (pIC50≤6) | D (pIC50≤6) | – | Cc1cc(-n2c(=O)n(CC(=O)NCC(F)(F)F)c3cccc(C)c32)cnc1-c1cncc2c1cnn2C [Example 97, 2-[4-methyl-3-[5-methyl-6-(1-methylpyrazolo[3,4-c]pyridin-4-yl)-3-pyridyl]-2-oxo-benzimidazol-1-yl]-N-(2,2,2-trifluoroethyl)acetamide] |
| 10 to 100 | – | – | 100 to 1000 | Cc1nc(-n2c(=O)n(CC(=O)NCC(F)(F)F)c3cccc(C)c32)cnc1-c1cncc2[nH]nc(C)c12 [Example 105, 2-[4-methyl-3-[6-methyl-5-(3-methyl-1H-pyrazolo[3,4-c]pyridin-4-yl)pyrazin-2-yl]-2-oxo-benzimidazol-1-yl]-N-(2,2,2-trifluoroethyl)acetamide] |
